In brackets after ≈: the same amount, converted by molar mass. Where two headings read alike, the source gives them in different places. Marks after values point to notes of the source that are not given here.
How the values were obtained:
[1] = test system: MRSA-1 (methicillin-resistant Staphylococcus aureus clinical isolate); assay: MIC assay (broth microdilution, CLSI); format: cell-based; conditions: Staphylococcus aureus, MRSA, read-out: MIC, MRSA-1
human red blood cells = assay: Hemolysis assay with red blood cells; conditions: human, 1 h, 200 μM, pH 7.2
Method in brief: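 Hemolysis expressed as percent of the Triton X signal with DMSO as zero, using OD405 of supernatant. Compounds from DMSO stocks were incubated with triple-washed human erythrocytes for 1 hour at 37° C. before centrifugation; three independent experiments.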

[2] = Aqueous solubility under MIC assay conditions; format: physicochemical; conditions: MIC assay media, 37 °C, aqueous buffer; read-out: [aq. soluble]
[3] = Spectrophotometric determination of dissociation constants (pKa); format: physicochemical; conditions: UV-vis at varying pH, 1:1 water:methanol buffers
Experimental: Dissociation constants (pKa) for select analogues were determined by implementing UV-vis spectroscopy at varying pH values. Buffers were prepared using potassium phosphate monobasic (KH2PO4) and sodium phosphate dibasic (Na2HPO4) in a 1:1 solution of water:methanol to achieve a pH range of 3.78 to 10.94. Compounds were added from 10 mM stock solutions in dimethyl sulfoxide (12.5 μL) to 987.5 μL of each buffer to yield a final compound concentration of 125 μM. Full spectral scans were performed for each evaluated analogue at pH 3.78 and pH 10.94 from 300 to 800 nm to determine λmax values for the protonated phenol (HA; e.g., HP 2 below) and the deprotonated phenolate species (A^−; e.g., conjugate base of HP 2 below). The change in absorption at each determined λmax in relation to pH was then monitored in each buffer and then plotted as absorbance versus pH for each species. The pKa was first estimated by determining the pH of the point of intersection of the two linear curves as shown. The visual estimation was confirmed by plotting pH versus log [A^−/HA]. The resulting plot yielded a linear regression line with a Y-intercept corresponding to a calculated pKa value.

[4] = test system: M. tuberculosis H37Ra (ATCC 25177); assay: Mycobacterium tuberculosis MIC assay; format: cell-based
Method in brief: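 Culture diluted to OD600 0.01 and exposed to compounds in 0.5% final DMSO, each compound tested in three rows. Growth read as OD600 absorbance. Data from three independent experiments.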

[5] = test system: MRSA-2 (methicillin-resistant Staphylococcus aureus clinical isolate); assay: MIC assay (broth microdilution, CLSI); format: cell-based; conditions: Staphylococcus aureus, MRSA, read-out: MIC, MRSA-2
A. baumannii 19606 = assay: MIC assay (broth microdilution, CLSI); format: cell-based, Acinetobacter baumannii; conditions: Acinetobacter baumannii, 19606; read-out: A. baumannii 19606 MIC
[6] = test system: Enterococcus faecium (ATCC 700221), VRE; assay: MIC assay (broth microdilution, CLSI); format: cell-based
[7] = test system: MRSA BAA-44 planktonic cells and biofilms; assay: Calgary Biofilm Device (CBD) assay, MBC/MBEC; conditions: Staphylococcus aureus, read-out: MRSA BAA-44 MBC
[8] = test system: S. aureus clinical isolate SA 138; assay: MIC assay (broth microdilution, CLSI); conditions: Staphylococcus aureus, read-out: MIC, SA 138
[9] = test system: methicillin-resistant S. aureus (MRSA) strains; assay: MIC assay, values summarised over MRSA strains; format: cell-based, Staphylococcus aureus
[10] = test system: MRSA-2 planktonic cells and biofilms; assay: Calgary Biofilm Device (CBD) assay, MBC/MBEC; format: cell-based, Staphylococcus aureus; conditions: for MBC: Staphylococcus aureus, MRSA
[11] = Table 2B, b lowest concentration tested
[12] = Mycobacterium tuberculosis, Table 7, read-out: MIC, M. tuberculosis H37Ra
[13] = Table 2B, a midpoint of 2-fold range, * partial growth inhibition at highest concentration
[14] = Table 7, a midpoint of 2-fold range, b lowest concentration tested
[15] = Table 7, b lowest concentration tested, read-out: MIC, VRE 700221
[16] = Table 5, a/b midpoint of 2-/4-fold range, read-out: MRSA-2 MBC
[17] = Table 8, a/b 2-/4-fold range in independent experiments, read-out: MRSA-2 MBC
[18] = viable biofilm cell count from CBD peg

Row | Compound | MIC [1, 11] | MIC ([1]; Table 11) | % Hemolysis (200 μM) (human red blood cells) | % Hemolysis at 200 μM (human red blood cells) | solubility at 16 h [2] | pKa [3] | MIC [4, 12] | MIC [5, 13] | MIC [5, 14] | MIC (A. baumannii 19606) | MIC [6, 15] | MBC [7] | MIC [8] | MBC [10, 16] | MBC [10, 17] | other results
1 | Oc1ccc(I)c2nc3cc(Cl)c(Cl)cc3nc12 [Compound 12, 7,8-Dichloro-4-iodo-1-hydroxyphenazine] | 0.2 µM (≈ 0.0782 µg/mL) | 0.3 µM (≈ 0.117 µg/mL) | 1.4% | 1.4% | 200 µM (≈ 78.2 µg/mL) | 7.70 | 3.13 µM | 0.39 µM (≈ 0.152 µg/mL) | 0.39 µM (≈ 0.152 µg/mL) | > 100 µM | 3.13 µM | 75 µM (≈ 29.3 µg/mL) | 0.59 µM (≈ 0.231 µg/mL) | 25 µM (≈ 9.77 µg/mL) | 25 µM (≈ 9.77 µg/mL) | MIC ([4]; Mycobacterium tuberculosis, 168 h, read-out: Mtb MIC): 3.13 µM; MIC ([4]; Mycobacterium tuberculosis, read-out: MIC, M. tuberculosis): ~1 mg/L; MIC ([5]; Table 2A): 0.39 µM (≈ 0.152 µg/mL); MIC ([6]; Enterococcus faecium, read-out: MIC, Enterococcus faecium (ATCC 700221), Table 2B, b lowest concentration tested): 3.13 µM; MIC ([6]; read-out: MIC, VRE 700221, Table 7, b lowest concentration tested): 3.13 to 6.25 µM; MIC ([9]; Staphylococcus aureus, MRSA, range over the MRSA strains/isolates tested, read-out: MIC against MRSA strains): 0.15 to 0.59 µM (≈ 0.0586 to 0.231 µg/mL); MBC ([10]; Table 4, read-out: MBC, MRSA-2): 25 µM (≈ 9.77 µg/mL)
2 | Oc1c(Br)cc(I)c2nc3cc(Cl)c(Cl)cc3nc12 [Compound 14, 2-bromo-7,8-dichloro-4-iodo-1-hydroxyphenazine] | 0.1 µM (≈ 0.047 µg/mL) | 0.1 µM (≈ 0.047 µg/mL) | 2.7% | 2.7% | 200 µM (≈ 94 µg/mL) | 6.95 | 12.5 µM | 3.13 µM (≈ 1.47 µg/mL) | 3.13 µM (≈ 1.47 µg/mL) | > 100 µM | 0.1 µM | 12.5 µM (≈ 5.87 µg/mL) | 0.59 µM (≈ 0.277 µg/mL) | 3.13 µM (≈ 1.47 µg/mL) | 3.13 µM (≈ 1.47 µg/mL) | MIC ([4]; Mycobacterium tuberculosis, 168 h, M. tuberculosis H37Ra, 7 days, read-out: Mtb MIC): 12.5 µM; MIC ([4]; Table 7, read-out: MIC, M. tuberculosis H37Ra): 12.5 µM; MIC ([6]; Enterococcus faecium, Table 2A, read-out: MIC, Enterococcus faecium (ATCC 700221)): < 0.1 µM; MIC ([6]; Enterococcus faecium, Table 2B, b lowest concentration tested, read-out: MIC, Enterococcus faecium (ATCC 700221)): 0.1 µM; MIC, VRE 700221 ([6]; Table 7, b lowest concentration tested): 0.10^b μM; MIC ([6]; read-out: MIC, VRE): 0.05 mg/L; growth inhibition activity against at least one MRSA strain [9]: sub-micromolar; persister cells eradicated within MRSA biofilms at the MBEC [10, 18]: > 99.9%; persister cells eradicated within MRSA-2 biofilms at the MBEC [10, 18]: > 3 log

— patent US20180312473A1, “PHENAZINE DERIVATIVES AS ANTIMICROBIAL AGENTS” (priority 2015, published 2018)
